pEC50: −log10 of the molar value.

T1 sequence (P35346 whole entry): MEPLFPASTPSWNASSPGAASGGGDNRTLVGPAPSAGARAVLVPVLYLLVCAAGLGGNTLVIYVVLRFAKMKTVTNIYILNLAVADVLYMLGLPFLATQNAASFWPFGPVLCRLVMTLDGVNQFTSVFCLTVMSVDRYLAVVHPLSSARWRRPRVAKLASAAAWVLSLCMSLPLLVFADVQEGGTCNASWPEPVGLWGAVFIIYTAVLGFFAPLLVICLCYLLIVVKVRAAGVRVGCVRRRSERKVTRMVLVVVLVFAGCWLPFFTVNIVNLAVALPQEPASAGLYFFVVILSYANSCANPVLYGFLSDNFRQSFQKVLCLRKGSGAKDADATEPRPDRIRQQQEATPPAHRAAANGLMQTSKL

One experiment concerns the target T1, human somatostatin receptor subtype 5 (Homo sapiens, UniProt P35346).
T1 construct: expressed in transfected cells
The experiment in a line: cAMP assay for SST5R (inhibition of cAMP in CHO-K1 cells). The class given is cell-based. Conditions: Table A; inhibition of cAMP via human SST5 receptor; read-out: SST5 potency. The text has this: General overview: All five SSTR subtypes are Gi coupled G-protein coupled receptors (GPCRs) that lead to decreases in intracellular cyclic AMP (cAMP) when activated by an agonist. Therefore, measurement of intracellular cAMP levels can be used to assess whether compounds of the invention are agonists of SSTR subtypes (John Kelly, Troy Stevens, W. Joseph Thompson, and Roland Seifert, Current Protocols in Pharmacology, 2005, 2.2.1-2.2). One example of an intracellular cAMP assay is described below.
cAMP Assay Protocol for SST5R:
Four days prior to the assay, 2,000 Chinese hamster ovary cells (CHO-K1, ATCC #CCL-61) stably expressing the human somatostatin receptor subtype 5 are plated in each well of a 96-well tissue culture-treated plate in Ham's F12 growth media (ThermoFisher #10-080-CM) supplemented with 10% donor bovine serum (Gemini Bio-Products #100-506), 100 U/mL penicillin; 100 µg/mL streptomycin; 2 mM L-glutamine (Gemini Bio-Products #400-110) and 0.25 mg/mL G418 Sulfate (GoldBio #108321-42-2). The cells are cultured at 37° C., 5% CO2 and 95% humidity. On the day of the assay, the media is aspirated and the cells are treated with 50 μL of 1.6 μM NKH477 (Sigma #N3290) plus various dilutions of compounds of the invention in assay buffer [1× Hank's Balanced Salt Solution (ThermoFisher #SH3058802), 0.5 mM HEPES pH 7.4, 0.1% bovine serum albumin, 0.2 mM 3-Isobutyl-1-methylxanthine (IBMX, VWR #200002-790)]. The cells are incubated for 20 minutes at 37° C. […] The cells are treated with 50 μL of lysis buffer (HRTF cAMP kit, Cisbio) for 30 minutes and then the lysate is diluted to 250 μL with assay buffer. The lysate is transferred to 384-well plates and cAMP detection and visualization antibodies are added and incubated for 1-24 hours at room temperature. The time-resolved fluorescent signal is read with a Tecan M1000Pro multiplate reader. The intracellular cAMP concentrations are calculated by regression to a standard curve and are plotted vs. the concentration of the compounds of the invention and the EC50 of the compounds are calculated using standard methods. All data manipulations are in GraphPad Prism v6 or v7.
(In general: Changes in cAMP serve as a functional read-out for many G protein-coupled receptors.)
For the compound `COc1ncc(C(=O)N[C@@H](C)C2CC2)c(N2CC[C@](C)(N)C2)c1-c1cc(F)cc(F)c1` [1-141, 4-[(3S)-3-amino-3-methylpyrrolidin-1-yl]-N-[(1S)-1-cyclopropylethyl]-5-(3,5-difluorophenyl)-6-methoxypyridine-3-carboxamide], the pEC50 was above 8.00. As for `C[C@H](NC(=O)c1cncc(-c2cncc(F)c2)c1N1CC[C@](C)(N)C1)C1CC1` [1-142, 4-[(3S)-3-amino-3-methylpyrrolidin-1-yl]-N-[(1S)-1-cyclopropylethyl]-5′-fluoro-[3,3′-bipyridine]-5-carboxamide], the pEC50 was above 8.00. The same measure, in the same setting: for `C[C@H](NC(=O)c1cncc(-c2cc(F)cc(OC(F)F)c2)c1N1CC[C@](C)(N)C1)C1CC1` [1-143, 4-[(3S)-3-amino-3-methylpyrrolidin-1-yl]-N-[(1S)-1-cyclopropylethyl]-5-[3-(difluoromethoxy)-5-fluorophenyl]pyridine-3-carboxamide] the value was above 8.00. As to `COc1ncc(C(=O)NC2CCC(F)(F)CC2)c(N2CC[C@](C)(N)C2)c1-c1cc(F)cc(F)c1` [1-144, 4-[(3S)-3-amino-3-methylpyrrolidin-1-yl]-N-(4,4-difluorocyclohexyl)-5-(3,5-difluorophenyl)-6-methoxypyridine-3-carboxamide], the pEC50 was above 8.00.

For the compound `COc1ncc(C(=O)N[C@H]2CCC(F)(F)C2)c(N2CC[C@](C)(N)C2)c1-c1cc(F)cc(F)c1` [1-145, 4-[(3S)-3-amino-3-methylpyrrolidin-1-yl]-N-[(1S)-3,3-difluorocyclopentyl]-5-(3,5-difluorophenyl)-6-methoxypyridine-3-carboxamide], the pEC50 is above 8.00. Consider `Cc1ncc(C(=O)NC2CC(F)(F)C2)c(N2CC[C@](C)(N)C2)c1-c1cc(F)cc(F)c1` [1-146, 4-[(3S)-3-amino-3-methylpyrrolidin-1-yl]-N-(3,3-difluorocyclobutyl)-5-(3,5-difluorophenyl)-6-methylpyridine-3-carboxamide], for which the pEC50 is above 8.00.

On to `Cc1ncc(C(=O)N[C@@H](C)C(F)(F)F)c(N2CC[C@](C)(N)C2)c1-c1cc(F)cc(F)c1` [1-147, 4-[(3S)-3-amino-3-methylpyrrolidin-1-yl]-5-(3,5-difluorophenyl)-6-methyl-N-[(2S)-1,1,1-trifluoropropan-2-yl]pyridine-3-carboxamide], for which the pEC50 was above 8.00. Same read-out and setting: for `Cc1ncc(C(=O)N[C@@H](C)C2CC2)c(N2CC[C@](C)(N)C2)c1-c1cnn(C)c1` [1-148, 4-[(3S)-3-amino-3-methylpyrrolidin-1-yl]-N-[(1S)-1-cyclopropylethyl]-6-methyl-5-(1-methyl-1H-pyrazol-4-yl)pyridine-3-carboxamide] the value was above 8.00. On to `C[C@H](NC(=O)c1cncc(-c2cccc(OC(F)F)c2)c1N1CC[C@](C)(N)C1)C1CC1` [1-149, 4-[(3S)-3-amino-3-methylpyrrolidin-1-yl]-N-[(1S)-1-cyclopropylethyl]-5-[3-(difluoromethoxy)phenyl]pyridine-3-carboxamide], for which the pEC50 is above 8.00. `COc1ncc(C(=O)NC2CCC(F)(F)CC2)c(N2CC[C@H](N)C2)c1-c1cc(F)cc(F)c1` [1-150, 4-[(3S)-3-aminopyrrolidin-1-yl]-N-(4,4-difluorocyclohexyl)-5-(3,5-difluorophenyl)-6-methoxypyridine-3-carboxamide]: the pEC50 was above 8.00. In the case of `COc1ncc(C(=O)N[C@@H](C)C(F)(F)F)c(N2CC[C@H](N)C2)c1-c1cc(F)cc(F)c1` [1-151, 4-[(3S)-3-aminopyrrolidin-1-yl]-5-(3,5-difluorophenyl)-6-methoxy-N-[(2S)-1,1,1-trifluoropropan-2-yl]pyridine-3-carboxamide], the pEC50 was above 8.00. Still for that read-out and setting: for `COc1ncc(C(=O)N[C@@H](C)C2CC2)c(N2CC[C@H](N)C2)c1-c1cc(F)cc(F)c1` [1-152, 4-[(3S)-3-aminopyrrolidin-1-yl]-N-[(1S)-1-cyclopropylethyl]-5-(3,5-difluorophenyl)-6-methoxypyridine-3-carboxamide] the value was above 8.00. For the compound `Cc1ncc(C(=O)N[C@@H](C)C2CC2)c(N2CC[C@](C)(N)C2)c1-c1cnn(CC(F)(F)F)c1` [1-155, 4-[(3S)-3-amino-3-methylpyrrolidin-1-yl]-N-[(1S)-1-cyclopropylethyl]-6-methyl-5-[1-(2,2,2-trifluoroethyl)-1H-pyrazol-4-yl]pyridine-3-carboxamide], the pEC50 was below 6.00.

As for `Cc1ncc(C(=O)N[C@@H](C)C2CC2)c(N2CC[C@](C)(N)C2)c1-c1cnn(C2CC2)c1` [1-156, 4-[(3S)-3-amino-3-methylpyrrolidin-1-yl]-5-(1-cyclopropyl-1H-pyrazol-4-yl)-N-[(1S)-1-cyclopropylethyl]-6-methylpyridine-3-carboxamide], the pEC50 was 7.00 to 8.00. With `C[C@H](NC(=O)c1cncc(-c2ccc3c(c2)OC(F)(F)O3)c1N1CC[C@](C)(N)C1)C1CC1` [1-175, 4-[(3S)-3-amino-3-methylpyrrolidin-1-yl]-N-[(1S)-1-cyclopropylethyl]-5-(2,2-difluoro-2H-1,3-benzodioxol-5-yl)pyridine-3-carboxamide], the pEC50 is 7.00 to 8.00. Still for that read-out and setting: for `COc1ncc(C(=O)N[C@@H](C)C(F)(F)F)c(N2CC[C@](C)(N)C2)c1-c1cnc(C)nc1` [1-185, 4-[(3S)-3-amino-3-methylpyrrolidin-1-yl]-6-methoxy-5-(2-methylpyrimidin-5-yl)-N-[(2S)-1,1,1-trifluoropropan-2-yl]pyridine-3-carboxamide] the value was 7.00 to 8.00. The same measure, in the same setting: for `C[C@H](NC(=O)c1cnc(C(F)(F)F)c(-c2cc(F)cc(F)c2)c1N1CC[C@](C)(N)C1)C1CC1` [1-189, 4-[(3S)-3-amino-3-methylpyrrolidin-1-yl]-N-[(1S)-1-cyclopropylethyl]-5-(3,5-difluorophenyl)-6-(trifluoromethyl)pyridine-3-carboxamide] the value was above 8.00; for `C[C@H](NC(=O)c1cnc(OCC(F)(F)F)c(-c2cc(F)cc(F)c2)c1N1CC[C@](C)(N)C1)C1CC1` [1-190, 4-[(3S)-3-amino-3-methylpyrrolidin-1-yl]-N-[(1S)-1-cyclopropylethyl]-5-(3,5-difluorophenyl)-6-(2,2,2-trifluoroethoxy)pyridine-3-carboxamide], above 8.00; for `C[C@H](NC(=O)c1cnc(OC2CC2)c(-c2cc(F)cc(F)c2)c1N1CC[C@](C)(N)C1)C1CC1` [1-191, 4-[(3S)-3-amino-3-methylpyrrolidin-1-yl]-6-cyclopropoxy-N-[(1S)-1-cyclopropylethyl]-5-(3,5-difluorophenyl)pyridine-3-carboxamide], above 8.00. Same read-out and setting: for `COc1ncc(C(=O)NC2CCC(C(F)(F)F)CC2)c(N2CC[C@H](N)C2)c1-c1cc(F)cc(F)c1` (stereo partly drawn) [1-193, 4-[(3S)-3-aminopyrrolidin-1-yl]-5-(3,5-difluorophenyl)-6-methoxy-N-[4-(trifluoromethyl)cyclohexyl]pyridine-3-carboxamide] the value was 6.00 to 7.00. Consider `COc1ncc(C(=O)NC(C2CC2)C(F)(F)F)c(N2CC[C@H](N)C2)c1-c1cc(F)cc(F)c1` (stereo partly drawn) [1-194, 4-[(3S)-3-aminopyrrolidin-1-yl]-N-(1-cyclopropyl-2,2,2-trifluoroethyl)-5-(3,5-difluorophenyl)-6-methoxypyridine-3-carboxamide], for which the pEC50 was above 8.00.

On to `N[C@H]1CCN(c2c(C(=O)NC3CCC(F)(F)CC3)cnc(OCC(=O)O)c2-c2cc(F)cc(F)c2)C1` [1-203, 2-({4-[(3S)-3-aminopyrrolidin-1-yl]-5-[(4,4-difluorocyclohexyl)carbamoyl]-3-(3,5-difluorophenyl)pyridin-2-yl}oxy)acetic acid], for which the pEC50 is above 8.00.

In the case of `N[C@H]1CCN(c2c(C(=O)NC3CCC(F)(F)CC3)cnc(OCCC(=O)O)c2-c2cc(F)cc(F)c2)C1` [1-204, 3-({4-[(3S)-3-aminopyrrolidin-1-yl]-5-[(4,4-difluorocyclohexyl)carbamoyl]-3-(3,5-difluorophenyl)pyridin-2-yl}oxy)propanoic acid], the pEC50 is below 6.00.

With `N[C@H]1CCN(c2c(C(=O)NC3CCC(F)(F)CC3)cnc(OCCCC(=O)O)c2-c2cc(F)cc(F)c2)C1` [1-205, 4-({4-[(3S)-3-aminopyrrolidin-1-yl]-5-[(4,4-difluorocyclohexyl)carbamoyl]-3-(3,5-difluorophenyl)pyridin-2-yl}oxy)butanoic acid], the pEC50 was above 8.00.

The experiment is the same for the next values; noted with them: Table B; inhibition of cAMP via human SST5 receptor; read-out: SST5 potency.
With `Cc1ncc(C(=O)N[C@@H](C)C2CC2)c(N2CC[C@](C)(N)C2)c1-c1cnn(CC(F)(F)F)c1` [1-155, 4-[(3S)-3-amino-3-methylpyrrolidin-1-yl]-N-[(1S)-1-cyclopropylethyl]-6-methyl-5-[1-(2,2,2-trifluoroethyl)-1H-pyrazol-4-yl]pyridine-3-carboxamide], the pEC50 is below 6.00.
